# Results as given in patent EP4603105A1, “PHARMACEUTICAL COMPOSITION CONTAINING CYCLIC COMPOUND HAVING SELECTIVE KRAS INHIBITORY EFFECT AGAINST HRAS AND NRAS” (CHUGAI SEIYAKU KABUSHIKI KAISHA, priority 2022, dated 2024).
# pIC50: −log10 of the molar value. *1 amine or outer side, *2 acyl side, *3 side chain or, on linkers, in order; H or OH if unused. Where a SMILES comes first, the peptide text is derived from it. Bridges are numbered along the chain shown (N, C = ends). [ ]: non-standard residue; d: D form. The star is where a group is joined. hPhe(3,5-F2-4-CF3) = N[C@@H](CCc1cc(F)c(C(F)(F)F)c(F)c1)C(=O)O; hPhe(3-Cl-4-CF3) = N[C@@H](CCc1ccc(C(F)(F)F)c(Cl)c1)C(=O)O; NPrPhe(4-CF3) = CCCN[C@@H](Cc1ccc(C(F)(F)F)cc1)C(=O)O; NEtPhe(4-Me) = CCN[C@@H](Cc1ccc(C)cc1)C(=O)O; X30 = CCN([C@H](C(=O)[*:2])C1CCCC1)[*:1]; NMeGly(cPent) = CN[C@H](C(=O)O)C1CCCC1; Ac4c(3,3-F2) = NC1(C(=O)O)CC(F)(F)C1; Hyp = O=C(O)[C@@H]1C[C@@H](O)CN1; NMeD = CN[C@@H](CC(=O)O)C(=O)O; NMeL = CN[C@@H](CC(C)C)C(=O)O; αMeS = C[C@](N)(CO)C(=O)O; Morpholide = C1CN(*)CCO1; NMeA = CN[C@@H](C)C(=O)O; Ac5c = NC1(C(=O)O)CCCC1; Aze = O=C(O)[C@@H]1CCN1; NEtG = CCNCC(=O)O; Sar = CNCC(=O)O; Allyl = C=CC*
# Legend:
# HRAS wild-type protein = HRAS wild-type protein (Homo sapiens, UniProt P01112); assay: Binding to HRAS by surface plasmon resonance (SPR), KD and KD ratio to KRAS
# Outline: (§1)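 GDP-bound biotin-Avi RAS captured at ~100–300 RU, 30°C, pH 7.4 HBS containing 10 µM GDP, 10 mM MgCl2, 1 mM DTT, 0.01% Tween 20 and 4% DMSO. KD by 1:1 fitting.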
# [1] = biological target: GDP-bound NRAS wild-type protein (Homo sapiens, UniProt P01111); assay: Binding to NRAS by surface plasmon resonance (SPR), KD and KD ratio to KRAS
# Outline: as §1
# [2] = tested on: human lung cancer strain NCI-H441; assay type: cell-based
# Outline: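 Readout: […] after the ATP-based reagent. Compound: serial dilutions in dimethyl sulfoxide.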
# [3] = ratio of KD for HRAS wild-type protein to KD for KRAS
# [4] = ratio of KD for GDP-bound NRAS wild-type protein to KD for KRAS
# [5] = ratio of the KD value with respect to HRAS wild-type protein to the KD value with respect to KRAS
# [6] = ratio of the KD value with respect to GDP-bound NRAS wild-type protein to the KD value with respect to KRAS
# HRAS wild-type protein, sequence (P01112 whole entry): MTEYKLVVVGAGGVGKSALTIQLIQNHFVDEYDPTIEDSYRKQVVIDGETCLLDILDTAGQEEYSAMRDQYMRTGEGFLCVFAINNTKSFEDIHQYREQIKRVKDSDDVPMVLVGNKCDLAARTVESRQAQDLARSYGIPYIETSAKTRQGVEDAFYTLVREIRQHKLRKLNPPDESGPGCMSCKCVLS
# GDP-bound NRAS wild-type protein, sequence (P01111 whole entry): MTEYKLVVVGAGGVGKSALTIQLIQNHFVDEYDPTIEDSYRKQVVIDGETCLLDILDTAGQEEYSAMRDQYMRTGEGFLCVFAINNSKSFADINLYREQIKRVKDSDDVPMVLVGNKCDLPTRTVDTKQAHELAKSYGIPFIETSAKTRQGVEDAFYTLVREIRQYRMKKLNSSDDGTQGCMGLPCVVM
Compound,HRAS /KRAS (HRAS wild-type protein; [3]),"NRAS /KRAS [1, 4]",pIC50 [2],HRAS /KRAS (HRAS wild-type protein; [5]),"NRAS /KRAS [1, 6]",HRAS /KRAS (HRAS wild-type protein; ratio of KD with respect to HRAS wild-type protein to KD with respect to KRAS),NRAS /KRAS ([1]; ratio of KD with respect to GDP-bound NRAS wild-type protein to KD with respect to KRAS)
CCO[C@@H]1C[C@H]2C(=O)NC3(CCC3)C(=O)N(C)[C@@H](C3CCCC3)C(=O)N(C)[C@H](C(=O)N3CCOCC3)CC(=O)N(C)[C@@H](CC(C)C)C(=O)N[C@@H]([C@@H](C)CC)C(=O)N(C)CC(=O)N(C)[C@H]3CCCCCN(C3=O)[C@@H](Cc3ccc(F)c(C)c3)C(=O)N(C)CC(=O)N[C@@H](CCc3cc(F)c(C(F)(F)F)c(F)c3)C(=O)N2C1 [PP0922],B (a compound having 3 or more and less than 10 is denoted as B),B (a compound having 3 or more and less than 10 is denoted as B),7.01,,,,
CCO[C@@H]1C[C@H]2C(=O)NC3(CCC3)C(=O)N(C)[C@@H](C3CCCC3)C(=O)N(C)[C@H](C(=O)N(C)C)CC(=O)N(C)[C@@H](CC3CCCC3)C(=O)N[C@@H]([C@@H](C)CC)C(=O)N(C)CC(=O)N(C)[C@H]3C/C=C\CCN(C3=O)[C@@H](Cc3ccc(C)cc3)C(=O)N(C)CC(=O)N[C@@H](CCc3ccc(C4CC4)c(C)c3)C(=O)N2C1 [PP2685],A (a compound having 10 or more and less than 20 is denoted as A),A (a compound having 10 or more and less than 20 is denoted as A),6.87,,,,
CCC[C@H]1C(=O)N[C@@H]([C@@H](C)CC)C(=O)N(C)CC(=O)N(C)[C@H]2C/C=C\CCN(C2=O)[C@@H](Cc2ccc(C(F)(F)F)cc2)C(=O)N(C)CC(=O)N[C@@H](CCc2cc(F)c(C(F)F)c(F)c2)C(=O)N2C[C@H](OCC)C[C@H]2C(=O)NC2(CC(C)(C)C2)C(=O)N(C)[C@@H](C2CCCC2)C(=O)N(C)[C@H](C(=O)N(C)C)CC(=O)N1C [PP2780],A (a compound having 10 or more and less than 20 is denoted as A),A (a compound having 10 or more and less than 20 is denoted as A),7.75,,,,
C=CC[C@H]1C(=O)N[C@@H]([C@@H](C)CC)C(=O)N(C)CC(=O)N(C)[C@H]2CCCCCN(C2=O)[C@@H](Cc2ccc(C(F)(F)F)cc2)C(=O)N(C)CC(=O)N[C@@H](CCc2cc(F)c(C(F)(F)F)c(F)c2)C(=O)N2C[C@H](OCC)C[C@H]2C(=O)NC2(CCC2)C(=O)N(C)[C@@H](C2CCCC2)C(=O)N(C)[C@H](C(=O)N(C)C)CC(=O)N1C [PP0665],,,7.81,B (a compound having 3 or more and less than 10 is denoted as B),B (a compound having 3 or more and less than 10 is denoted as B),,
CC[C@H](C)[C@@H]1NC(=O)[C@H](CC(C)C)N(C)C(=O)C[C@@H](C(=O)N2CCOCC2)N(C)C(=O)[C@H](C2CCCC2)N(C)C(=O)C2(CCCC2)NC(=O)[C@@H]2CCCN2C(=O)[C@H](CCc2ccc(C(F)(F)F)c(Cl)c2)NC(=O)CN(C)C(=O)[C@H](C2CCCC2)N(CC)C(=O)[C@@H]2CCN2C(=O)[C@H](C)N(C)C1=O [PP0003] ([NMeL]I[NMeA][Aze][X30][Sar][hPhe(3-Cl-4-CF3)]P[Ac5c][NMeGly(cPent)][NMeD]-Morpholide; lactam N-11),C (A compound having a KD ratio of 0.1 or more and less than 3 is denoted as C),C (A compound having a KD ratio of 0.1 or more and less than 3 is denoted as C),7.38,,,,
"CCCN1C(=O)CN(C)C(=O)CN(C)C(=O)[C@H]([C@@H](C)CC)NC(=O)[C@H](CC(C)C)N(C)C(=O)C[C@@H](C(=O)N(C)C)N(C)C(=O)[C@H](C2CCCC2)N(C)C(=O)C2(CC(F)(F)C2)NC(=O)[C@@H]2CCCN2C(=O)[C@H](CCc2cc(F)c(C(F)(F)F)c(F)c2)NC(=O)CN(C)C(=O)[C@@H]1Cc1ccc(C(F)(F)F)cc1 [PP0745] ([NMeL]I[Sar][Sar][NPrPhe(4-CF3)][Sar][hPhe(3,5-F2-4-CF3)]P[Ac4c(3,3-F2)][NMeGly(cPent)][NMeD]-NMe2; lactam N-11)",,,8.41,C (A compound having a KD ratio of 0.1 or more and less than 3 is denoted as C),B (a compound having 3 or more and less than 10 is denoted as B),,
"C=CCOC[C@]1(C)NC(=O)[C@@H]2CCCN2C(=O)[C@H](CCc2cc(F)c(C(F)(F)F)c(F)c2)NC(=O)CN(C)C(=O)[C@H](Cc2ccc(C(F)(F)F)cc2)N(CCC)C(=O)CN(C)C(=O)CN(C)C(=O)[C@H]([C@@H](C)CC)NC(=O)[C@H](CC(C)C)N(C)C(=O)C[C@@H](C(=O)N(C)C)N(C)C(=O)[C@H](C2CCCC2)N(C)C1=O [PP0742] ([NMeL]I[Sar][Sar][NPrPhe(4-CF3)][Sar][hPhe(3,5-F2-4-CF3)]P[αMeS](Allyl)[NMeGly(cPent)][NMeD]-NMe2; lactam N-11)",,,7.13,B (a compound having 3 or more and less than 10 is denoted as B),B (a compound having 3 or more and less than 10 is denoted as B),,
CCCN(C)C(=O)[C@@H]1CC(=O)N(C)[C@@H](C2CC2)C(=O)N[C@@H]([C@@H](C)CC)C(=O)N(C)CC(=O)N(C)[C@H]2C/C=C\CCN(C2=O)[C@@H](Cc2ccc(C(F)(F)F)cc2)C(=O)N(C)CC(=O)N[C@@H](CCc2cc(F)c(C(F)(F)F)c(F)c2)C(=O)N2C[C@H](OCC)C[C@H]2C(=O)NC2(CCC2)C(=O)N(C)[C@@H](C2CCCC2)C(=O)N1C [PP1994],,,7.65,A (a compound having 10 or more and less than 20 is denoted as A),AA (a compound having 20 or more is denoted as AA),,
CCC[C@H]1C(=O)N[C@@H]([C@@H](C)CC)C(=O)N(C)CC(=O)N(C)[C@H]2C/C=C\CCN(C2=O)[C@@H](Cc2ccc(C)cc2)C(=O)N(C)CC(=O)N[C@@H](CCc2ccc3sc(F)c(C)c3c2)C(=O)N2C[C@H](OCC)C[C@H]2C(=O)NC2(CC(C)(C)C2)C(=O)N(C)[C@@H](C(CC)CC)C(=O)N(C)[C@H](C(=O)N(C)C)CC(=O)N1C [PP2894],A (a compound having 10 or more and less than 20 is denoted as A),AA (a compound having 20 or more is denoted as AA),8.02,,,,
CCCN1C(=O)CN(C)C(=O)CNC(=O)[C@H]([C@@H](C)CC)NC(=O)[C@H](CC(C)C)N(C)C(=O)C[C@@H](C(=O)N(C)C)N(C)C(=O)[C@H](C2CCCC2)N(C)C(=O)C2(CCCC2)NC(=O)[C@@H]2C[C@@H](OCC)CN2C(=O)[C@H](CCc2ccc(C(F)(F)F)c(Cl)c2)NC(=O)CN(C)C(=O)[C@@H]1Cc1ccc(C(F)(F)F)cc1 [PP0421] ([NMeL]IG[Sar][NPrPhe(4-CF3)][Sar][hPhe(3-Cl-4-CF3)][Hyp](Et)[Ac5c][NMeGly(cPent)][NMeD]-NMe2; lactam N-11),,,8.70,C (A compound having a KD ratio of 0.1 or more and less than 3 is denoted as C),B (a compound having 3 or more and less than 10 is denoted as B),,
CCO[C@@H]1C[C@H]2C(=O)NC3(CCC3)C(=O)N(C)[C@@H](C3CCCC3)C(=O)N(C)[C@H](C(=O)N(C)C)CC(=O)N(C)[C@@H](CC(C)C)C(=O)N[C@@H]([C@@H](C)CC)C(=O)N(C)CC(=O)N(C)[C@H]3CCCCN(C3=O)[C@@H](Cc3ccc(C(F)(F)F)cc3)C(=O)N(C)CC(=O)N[C@@H](CCc3cc(F)c(C(F)(F)F)c(F)c3)C(=O)N2C1 [PP0580],,,8.74,C (A compound having a KD ratio of 0.1 or more and less than 3 is denoted as C),C (A compound having a KD ratio of 0.1 or more and less than 3 is denoted as C),,
CCO[C@@H]1C[C@H]2C(=O)NC3(CCC3)C(=O)N(C)[C@@H](C3CCCC3)C(=O)N(C)[C@H](C(=O)N(CC)CC)CC(=O)N(C)[C@@H](C)C(=O)N[C@@H]([C@@H](C)CC)C(=O)N(C)CC(=O)N(C)[C@H]3C/C=C\CCN(C3=O)[C@@H](Cc3ccc(C(F)(F)F)cc3)C(=O)N(C)CC(=O)N[C@@H](CCc3cc(F)c(C(F)(F)F)c(F)c3)C(=O)N2C1 [PP1308],,,7.96,,,A (a compound having 10 or more and less than 20 is denoted as A),A (a compound having 10 or more and less than 20 is denoted as A)
CC[C@H](C)[C@@H]1NC(=O)[C@H](CC(C)C)N(C)C(=O)C[C@@H](C(=O)N2CCOCC2)N(C)C(=O)[C@H](C2CCCC2)N(C)C(=O)C2(CCCC2)NC(=O)[C@@H]2CCCN2C(=O)[C@H](CCc2ccc(C(F)(F)F)c(Cl)c2)NC(=O)CN(CC)C(=O)[C@H](Cc2ccc(C)cc2)N(CC)C(=O)CN(CC)C(=O)CN(C)C1=O [PP0030] ([NMeL]I[Sar][NEtG][NEtPhe(4-Me)][NEtG][hPhe(3-Cl-4-CF3)]P[Ac5c][NMeGly(cPent)][NMeD]-Morpholide; lactam N-11),C (A compound having a KD ratio of 0.1 or more and less than 3 is denoted as C),C (A compound having a KD ratio of 0.1 or more and less than 3 is denoted as C),7.06,,,,
CC[C@H](C)[C@@H]1NC(=O)[C@@H]2CCC/C=C/c3ccc(cc3)C[C@@H](C(=O)N(C)CC(=O)N[C@@H](CCc3ccc(Cl)c(Cl)c3)C(=O)N3CCC[C@H]3C(=O)NC3(CC(C)(C)C3)C(=O)N(C)[C@@H](C3CCCC3)C(=O)N(C)[C@H](C(=O)N(C)CC)CC(=O)N2C)N2CC/C=C\C[C@@H](C2=O)N(C)C(=O)CN(C)C1=O [PP2601],A (a compound having 10 or more and less than 20 is denoted as A),A (a compound having 10 or more and less than 20 is denoted as A),8.05,,,,
